Assay results: EPA's ToxValDB 9.5

Experiments:
Canidae = conditions: Dog Other
[1] = subchronic, duration: 90 days, oral, diet, M/F, Sprague-Dawley, no effects
[2] = subchronic, duration: 90 days, oral, diet, M/F, no effects
[3] = subchronic, duration: 90 days, clinical chemistry
[4] = reproduction developmental, histopathology: nonneoplastic
[5] = chronic, duration: 2 years, M/F, clinical chemistry
[6] = subchronic, duration: 90 days, oral, diet, Wistar, no effects

O=C([O-])c1cc(C(=O)[O-])c2c(n1)C(=O)C(=O)c1cc(C(=O)O)[nH]c1-2.[Na+].[Na+]
NOAEL (Rattus norvegicus; subchronic, duration: 90 days, oral, gavage, M/F, Crj:CD): 100 mg/kg-day

CC(C)(CO)C1OCC2(CO1)COC(C(C)(C)CO)OC2 (configuration not stated)
NOAEL (Rattus norvegicus; subchronic, duration: 90 days, oral, M/F, Sprague-Dawley, no effects): 2000 mg/kg-day

CC(C)CC(=O)N1CCC[C@H](COc2cccc3c2C(N)=NS(=O)(=O)N3)C1
NOAEL (Rattus norvegicus; reproduction developmental, duration: 15 days, oral, gavage, no effects): 1000 mg/kg-day | NOAEL (Rattus norvegicus; subchronic, duration: 13 weeks, oral, diet, M/F, no effects): 100 mg/kg-day

CCCNC(=O)C(C)(C)COc1cccc2c1C(N)=NS(=O)(=O)N2
NOAEL (Rattus norvegicus; [1]): 20 mg/kg-day

CC(=O)c1cccc2ccccc12 [1'-Acetonaphthone]
NOAEL (Rattus norvegicus; [2]): 33 mg/kg-day

CC(O)CO (configuration not stated) [1,2-Propylene glycol]
NOEL (Rattus norvegicus; chronic, duration: 2 years): 2500 mg/kg-day

OC1CSC(O)CS1 (configuration not stated) [1,4-Dithiane-2,5-diol]
NOAEL (Rattus norvegicus; [1]): 3.14 mg/kg-day

SCCCCCCCCS [1,8-Octanedithiol]
NOAEL (Rattus norvegicus; [1]): 0.705 mg/kg-day

CC(=O)CSCc1ccco1 [1-(2-Furfurylthio)propanone]
NOAEL (Rattus norvegicus; [2]): 3.76 mg/kg-day

C=C(C)c1ccc(C)cc1 [1-Methyl-4-(prop-1-en-2-yl)benzene]
NOAEL (Rattus norvegicus; subchronic, duration: 90 days): 0.625 mg/kg-day

Clc1cc2c(cc1Cl)Oc1cc(Cl)c(Cl)cc1O2 [2,3,7,8-Tetrachlorodibenzo-p-dioxin]
LOAEL (Rattus norvegicus; reproduction developmental, injection, subcutaneous, Wistar, behavior): 2.5e-05 mg/kg-day

CC(S)C(C)S (configuration not stated) [2,3-Butanedithiol]
NOAEL (Rattus norvegicus; [1]): 0.703 mg/kg-day

Clc1ccc(-c2ccc(Cl)cc2Cl)cc1 [2,4,4'-Trichlorobiphenyl]
NOAEL (Rattus norvegicus; [3]): 0.4 mg/kg-day

CCC(C)(C)c1ccc(O)c(C(C)(C)CC)c1 [2,4-Di-tert-pentylphenol]
NOAEL (Rattus norvegicus; subchronic, duration: 90 days, oral, M/F, Wistar, histopathology: nonneoplastic): 5 mg/kg-day

CC(C)=CCCC(C)C=O (configuration not stated) [2,6-Dimethylhept-5-enal]
NOAEL (Rattus norvegicus; subchronic, duration: 3 months, oral, diet, M/F, organ weight): 37 mg/kg-day

CC(C)=CC(=O)SC(C)C [2-Butenethioic acid, 3-methyl-, S-(1-methylethyl) ester]
NOAEL (Rattus norvegicus; subchronic, duration: 90 days, oral): 6.63 mg/kg-day

CCC1SSC(CC)S1 (configuration not stated) [3,5-Diethyl-1,2,4-trithiolane]
NOAEL (Rattus norvegicus; [1]): 0.2 mg/kg-day

CCOC(=O)c1ccoc1-c1ccccc1 [3-Furancarboxylic acid, 2-phenyl-, ethyl ester]
NOEL (Rattus norvegicus; subchronic, duration: 90 days, oral, diet): 13 mg/kg-day

CC1=C(O)C(=O)C(C)O1 (configuration not stated) [4-Hydroxy-2,5-dimethyl-3(2H)furanone]
NOAEL (Rattus norvegicus; chronic, duration: 2 years, M/F, body weight): 200 mg/kg-day | NOAEL (Rattus norvegicus; chronic, duration: 2 years, oral, diet, M/F, Sprague-Dawley, body weight): 200 mg/kg-day

Cc1ccc(C(=O)c2ccccc2)cc1 [4-Methylbenzophenone]
LOAEL (Rattus norvegicus; [4]): 6 mg/kg-day

CC1CCC2(O1)C(C)(C)CCCC2(C)O (configuration not stated) [6-Hydroxydihydrotheaspirane]
NOAEL (Rattus norvegicus; subchronic, duration: 90 days, oral, diet, M/F, Crj:CD, food efficiency): 52 mg/kg-day

Cc1ccc2ncccc2c1 [6-Methylquinoline]
NOAEL (Rattus norvegicus; [2]): 2.2 mg/kg-day

CCCCC/C=C/C=C/C(=O)NCC(C)C [(E,E)-N-(2-Methylpropyl)-2,4-decadienamide]
NOAEL (Rattus norvegicus; subchronic, duration: 90 days, oral, diet, M/F, Sprague-Dawley, histopathology: nonneoplastic): 10 mg/kg-day

CC(C)=O [Acetone]
NOAEL (Rattus norvegicus; subchronic, duration: 90 days, oral, drinking water): 900 mg/kg-day

O=S(=O)([O-])c1ccc2c(N=Nc3ccc(S(=O)(=O)[O-])c4ccccc34)c(O)c(S(=O)(=O)[O-])cc2c1.[Na+].[Na+].[Na+] [Amaranth]
NOAEL (Rattus norvegicus; developmental, duration: 19 days, oral, gavage, F, Osborne-Mendel, development): 15 mg/kg-day

O=C(c1ccccc1)c1ccccc1 [Benzophenone]
LOAEL (Rattus norvegicus; [4]): 6 mg/kg-day

OCc1ccccc1 [Benzyl alcohol]
NOAEL (Rattus norvegicus; chronic, duration: 103 weeks, oral, gavage, M/F, no effects): 400 mg/kg-day

CCCCOC(=O)c1ccccc1C(=O)OCc1ccccc1 [Benzyl butyl phthalate]
NOAEL (Rattus norvegicus; developmental, oral, diet, M/F, development): 50 mg/kg-day

Cc1occc1SSSSc1ccoc1C [Bis(2-methyl-3-furyl) tetrasulfide]
NOAEL (Rattus norvegicus; subchronic, duration: 90 days, oral, diet, M/F, Wistar, no effects): 0.56 mg/kg-day

N#Cc1cc(Br)c(O)c(Br)c1 [Bromoxynil]
NOAEL (Canidae; chronic, duration: 1 years, oral, organ weight): 0.3 mg/kg-day | NOAEL (Rattus norvegicus; developmental, development): 4 mg/kg-day

O=C([O-])c1[nH]n(-c2ccc(S(=O)(=O)[O-])cc2)c(=O)c1N=Nc1ccc(S(=O)(=O)[O-])cc1.[Na+].[Na+].[Na+] [C.I. Acid Yellow 23]
NOAEL (Rattus norvegicus; chronic, M, body weight): 984 mg/kg-day

CCCCCCCCCCCCCCCCCC(=O)OC(C)C(=O)OC(C)C(=O)[O-].CCCCCCCCCCCCCCCCCC(=O)OC(C)C(=O)OC(C)C(=O)[O-].[Ca+2] (configuration not stated) [Calcium stearoyl-2-lactylate]
NOAEL (Rattus norvegicus; chronic, duration: 1 years, M/F, Wistar, no effects): 2200 mg/kg-day

[Cr+3] [Chromium (III)]
NOAEL (Rattus norvegicus; chronic, duration: 2 years, oral, diet, M/F, Fischer 344, histopathology: neoplastic): 286 mg/kg-day

O=c1ccc2ccccc2o1 [Coumarin]
NOAEL (Canidae; chronic, duration: 2 years, histopathology: nonneoplastic): 10 mg/kg-day

COc1cc(/C=C/C(=O)CC(=O)/C=C/c2ccc(O)c(OC)c2)ccc1O [Curcumin]
NOAEL (Rattus norvegicus; reproduction developmental, duration: 24 weeks, oral, diet, M/F, body weight): ≥ 250 mg/kg-day

ClC1=C(Cl)[C@]2(Cl)[C@@H]3[C@@H]4C[C@@H]([C@H]5O[C@@H]45)[C@@H]3[C@@]1(Cl)C2(Cl)Cl [Dieldrin]
LD50 (Rattus norvegicus; acute, oral, mortality): 25 mg/kg-day

O=C(NC(=O)c1c(F)cccc1F)Nc1ccc(Cl)cc1 [Diflubenzuron]
NOAEL (Canidae; chronic, duration: 1 years, oral, hematological): 10 mg/kg-day | LD50 (Rattus norvegicus; acute, dermal, mortality): > 2000 mg/kg | LC50 (Rattus norvegicus; acute, duration: 4 hours, inhalation, mortality): > 2.5 µg/mL | LD50 (Rattus norvegicus; acute, oral, mortality): > 4640 mg/kg

COc1cc(COC(=O)CCCCCCC(C)C)ccc1O [Dihydrocapsiate]
NOAEL (Rattus norvegicus; chronic, duration: 26 weeks, oral, gavage, M/F, Sprague-Dawley, histopathology: nonneoplastic): 300 mg/kg-day | NOAEL (Rattus norvegicus; subchronic, duration: 13 weeks, oral, gavage, M/F, Sprague-Dawley, clinical chemistry): 300 mg/kg-day | NOAEL (Rattus norvegicus; subchronic, duration: 13 weeks, oral, gavage, M/F, Sprague-Dawley, organ weight): 300 mg/kg-day

CC(C)CCCCCCCOC(=O)c1ccccc1C(=O)OCCCCCCCC(C)C [Diisodecyl phthalate]
NOAEL (Canidae; subchronic, duration: 13 weeks, histopathology: nonneoplastic): 15 mg/kg-day

CC(C)CCCCCCOC(=O)C1CCCCC1C(=O)OCCCCCCC(C)C (configuration not stated) [Diisononyl cyclohexane-1,2-dicarboxylate]
NOAEL (Rattus norvegicus; subchronic, duration: 13 weeks, M/F, Wistar, clinical chemistry): 100 mg/kg-day

c1ccc(Oc2ccccc2)cc1 [Diphenyl oxide]
NOAEL (Rattus norvegicus; subchronic, duration: 90 days, oral, body weight): 15 mg/kg-day

CCOC(=O)C1OC1(C)c1ccc(C)cc1 (configuration not stated) [Ethyl 3-methyl-3-(4-methylphenyl)oxirane-2-carboxylate]
NOAEL (Rattus norvegicus; [5]): 35 mg/kg-day

CCOC(=O)C1OC1(C)c1ccccc1 (configuration not stated) [Ethyl methylphenylglycidate]
NOAEL (Rattus norvegicus; [5]): 35 mg/kg-day

O=S(=O)([O-])c1ccc(N=Nc2c(O)ccc3cc(S(=O)(=O)[O-])ccc23)cc1.[Na+].[Na+] [FD&C Yellow 6]
NOAEL (Canidae; chronic, duration: 7 years, oral, F, no effects): 500 mg/kg-day | NOAEL (Rattus norvegicus; reproduction developmental, duration: 28 days, oral, diet, body weight): 375 mg/kg-day | NOAEL (Rattus norvegicus; subchronic, duration: 90 days, oral, diet, M/F, histopathology: nonneoplastic): 500 mg/kg-day

Cc1cc(SSc2cc(C)oc2C)c(C)o1 [Furan, 3,3'-dithiobis[2,5-dimethyl-]
NOAEL (Rattus norvegicus; subchronic, duration: 90 days, no effects): 0.29 mg/kg-day

Cc1occc1SSCc1ccco1 [Furfuryl 2-methyl-3-furyl disulfide]
NOAEL (Rattus norvegicus; [6]): 0.45 mg/kg-day

CCCOC(=O)c1cc(O)c(O)c(O)c1 [Gallic acid n-propyl ester]
NOAEL (Rattus norvegicus; subchronic, duration: 13 weeks, oral, diet, M/F, clinical chemistry): 1910 mg/kg-day | NOAEL (Rattus norvegicus; subchronic, duration: 90 days, oral, diet, M/F, hematological): 135 mg/kg-day

CC/C=C/CCOC(=O)C(CC)CC [Hex-3-enyl 2-ethylbutanoate]
NOAEL (Rattus norvegicus; reproduction developmental, duration: 10 days, oral, gavage, F, Sprague-Dawley, no effects): 200 mg/kg-day | NOAEL (Rattus norvegicus; reproduction developmental, duration: 10 days, oral, gavage, F, no effects): 200 mg/kg-day

c1ccc2cnccc2c1 [Isoquinoline]
NOAEL (Rattus norvegicus; subchronic, duration: 90 days, oral, gavage, M/F, Sprague-Dawley, no effects): 3 mg/kg-day

CC(=O)N[C@H]1[C@H](O[C@H]2[C@@H](O)[C@@H](CO)O[C@@H](O[C@@H]([C@H](O)[C@@H](O)C=O)[C@H](O)CO)[C@@H]2O)O[C@H](CO)[C@@H](O[C@@H]2O[C@H](CO)[C@H](O)[C@H](O)[C@H]2O)[C@@H]1O [Lacto-N-neotetraose]
NOAEL (Rattus norvegicus; subchronic, duration: 90 days, oral, gavage, M/F, Wistar, hematological): 2500 mg/kg-day

COc1cc(CCCS(=O)(=O)[O-])ccc1OC(Cc1cccc(OC)c1O)CS(=O)(=O)[O-].[Ca+2] (configuration not stated) [Lignosulfonic acid, calcium salt]
NOAEL (Rattus norvegicus; [6]): 2000 mg/kg-day

Cc1occc(=O)c1O [Maltol]
NOEL (Rattus norvegicus; chronic, duration: 2 years, oral, diet): 100 mg/kg-day

COC(=O)CCSCc1ccco1 [Methyl 3-{[(furan-2-yl)methyl]sulfanyl}propanoate]
NOAEL (Rattus norvegicus; subchronic, duration: 90 days, oral, diet, M/F, clinical chemistry): 5.78 mg/kg-day

CC(C)(CO)[C@@H](O)C(=O)NCCC(=O)NCCSSCCNC(=O)CCNC(=O)[C@H](O)C(C)(C)CO [Pantethine]
NOAEL (Rattus norvegicus; chronic, duration: 54 weeks, M/F, clinical chemistry): 36 mg/kg-day

C/C=C/C=C/C(=O)[O-].[K+] [Potassium (E,E)-hexa-2,4-dienoate]
NOAEL (Rattus norvegicus; reproduction developmental, oral, gavage, M/F, Crj:CD, body weight): 300 mg/kg-day

Cc1cc2nc3c(=O)[nH]c(=O)nc-3n(C[C@H](O)[C@H](O)[C@H](O)COP(=O)([O-])O)c2cc1C.[Na+] [Riboflavin 5'-(dihydrogen phosphate), sodium salt (1:1)]
NOAEL (Rattus norvegicus; subchronic, duration: 90 days, M/F, Wistar, no effects): 160 mg/kg-day

CC1S[C@H](C)N[C@H](C)S1 (some centres not stated) [Thialdine]
NOAEL (Rattus norvegicus; subchronic, duration: 90 days, oral, diet, M, histopathology: nonneoplastic): 9.3 mg/kg-day

CN(C)C [Trimethylamine]
NOAEL (Rattus norvegicus; subchronic, duration: 90 days): 90 mg/kg-day

O=P(c1ccccc1)(c1ccccc1)c1ccccc1 [Triphenylphosphine oxide]
NOEL (Rattus norvegicus; [3]): 2 mg/kg-day

CCCCC(CC)COC(=O)c1ccc(C(=O)OCC(CC)CCCC)c(C(=O)OCC(CC)CCCC)c1 (configuration not stated) [Tris(2-ethylhexyl) trimellitate]
NOAEL (Rattus norvegicus; subchronic, duration: 90 days, oral, diet, M/F, Sprague-Dawley, organ weight): 225 mg/kg-day
